Experimental data taken from PMC7758017 (Iranian Journal of Pharmaceutical Research : IJPR, 2020).
Like-named read-outs stand apart in the source and are kept apart here.

Columns and labels:
[1] = human, 10 mg/day p.o., HPLC study, ref [7], cited from earlier work
[2] = tested on: acetylcholinesterase (AChE); set-up: method as in PMID 10641971; conditions: long-lasting, pseudo-irreversible inhibitor; ref [10]; cited from earlier work
in vivo [3] = conditions: male, Wistar, rat, im
Experimental: (§1) An analytical column (Waters Spherisorb S5 W (250 mm × 4.6 i.d.; 5 μm particle size)) with guard column (Waters Spherisorb S5 W (30 mm × 4.6 mm i.d.)) was used for the analysis. The mobile phase contained acetonitrile and 50 mM sodium dihydrogen phosphate (17:83; v/v). The pH was adjusted to 3.1 with phosphoric acid ([13]). The sample volume was 40 µL for plasma samples and 90 µL for brain-tissue samples. All chromatograms were obtained at a conditioned temperature (50 °C), and the flow rate was 1.3 mL/min ([13]).
(§2) Male adult Wistar rats (body weight 230 ± 30 g; Anlab Inc., Prague, Czech Republic) were used for pharmacokinetics study. The animals were kept under recommended conditions: standard laboratory food and tap water were available ad libitum. All experimental procedures and protocols were reviewed and approved by the Ethics Committee of the Faculty of Military Health Sciences, University of Defense, Hradec Kralove, Czech Republic. […] Blood samples were collected directly from the heart into heparinized 1.5 mL polythene tubes after 5, 15, 30, 45, 60, 120 and 240 min, and after 24 h (n = 6; six animals in each time interval). The samples were immediately centrifuged at 3000 ×g for 10 min (10 °C), and the plasma obtained was stored at −80 °C until analysis.
(§3) Standard noncompartmental analysis was performed using Kinetica software, version 4.0 (InnaPhase Corporation, Thermo Fisher Scientific Inc., Waltham, MA, USA). Maximum concentration (Cmax) and the time to the maximum concentration (Tmax) were determined directly from the observed data. The area under the mean plasma concentration–time curve from zero up to infinity (AUCtotal) was determined as the sum of the AUC0–24 h and of the extrapolated part, i.e. the ratio of the concentration predicted at the time interval of 24 h and the terminal rate constant λz. The λz was estimated using linear regression of the log-transformed concentrations at interval from 45 min to 24 h plotted against time. The half-life was calculated as t1/2 = ln(2)/λz. […]

in vivo [4] = conditions: male, Wistar, rat
Experimental: as §1, §2
After perfusion, the skull was opened and the brain was checked visually and subsequently carefully removed; time intervals correspond with blood sampling (5, 15, 30, 45, 60, 120 and 240 min, and after 24 hours; n = 6; the same animals were used). All brains were stored at –80 °C until HPLC analysis ([15]).
Standard noncompartmental analysis was performed using Kinetica software, version 4.0 (InnaPhase Corporation, Thermo Fisher Scientific Inc., Waltham, MA, USA). Maximum concentration (Cmax) and the time to the maximum concentration (Tmax) were determined directly from the observed data. The area under the mean plasma concentration–time curve from zero up to infinity (AUCtotal) was determined as the sum of the AUC0–24 h and of the extrapolated part, i.e. the ratio of the concentration predicted at the time interval of 24 h and the terminal rate constant λz. The λz was estimated using linear regression of the log-transformed concentrations at interval from 45 min to 24 h plotted against time. The half-life was calculated as t1/2 = ln(2)/λz. Other statistical analysis was performed using GraphPad Prism, version 5.0 (GraphPad Software, San Diego, California, USA).
Brain tissues (whole brains) were mechanically crushed under liquid nitrogen. […] Eight-hundred microliter of supernatant was subjected to liquid-liquid extraction as previously described. All assessments were performed in triplicate.

[5] = Plasma pharmacokinetics after single i.m. injection in rats (HPLC-UV); conditions: male, Wistar, rat, in vivo, im
Experimental: as §1, §2, §3

**Q.** For `COc1cc2c(cc1OC)C(=O)C(CC1CCN(Cc3ccccc3)CC1)C2` (stereo not drawn) [Donepezil], which CSF concentration ([1]; 12 h after application) is on record?
**A.** Its CSF concentration is 5.2 ng/mL.

**Q.** And the CSF concentration ([1]; after 24 h)?
**A.** The CSF concentration was 7.5 ng/mL.

**Q.** What does the source list for `CCN(C)C(=O)Oc1cccc([C@H](C)N(C)C)c1` [Rivastigmine]?
**A.** duration of AChE inhibition [2]: up to 10 h; CL/F (in vivo [3]): 690 ± 30 mL/min/kg; MRT (in vivo [3]): 43.4 min; Kp at 0 min (in vivo [4]): 0; Kp at 5 min (in vivo [4]): 1.74; Kp at 15 min (in vivo [4]): 1.48; Kp at 30 min (in vivo [4]): 1.7; Kp at 45 min (in vivo [4]): 1.15; Kp at 60 min (in vivo [4]): 1.13; Kp at 120 min (in vivo [4]): 0.176; Kp at 240 min (in vivo [4]): 0; Kp at 24 h (in vivo [4]): 0; concentration at 0 min (in vivo [4]): 0 ng/mL; concentration at 5 min (in vivo [4]): 5.23 ± 0.76 ng/mL; concentration at 15 min (in vivo [4]): 4.92 ± 0.62 ng/mL; concentration at 30 min (in vivo [4]): 4.72 ± 0.51 ng/mL; concentration at 45 min (in vivo [4]): 2.73 ± 0.32 ng/mL; concentration at 60 min (in vivo [4]): 2.24 ± 0.22 ng/mL; concentration at 120 min (in vivo [4]): 0.03 ± 0.02 ng/mL; concentration at 240 min (in vivo [4]): 0 ng/mL; concentration at 24 h (in vivo [4]): 0 ng/mL; Vd/F [5]: 19.8 ± 3.87 L/kg
